Measurements: ChEMBL document CHEMBL2074547, “Efflux of sphingoid bases by P-glycoprotein in human intestinal Caco-2 cells” (Biosci Biotechnol Biochem, 2004)

Target: ATP-dependent translocase ABCB1 (Homo sapiens, UniProt P08183)
Assay: TP_TRANSPORTER: cell accumulation (digoxin-sensitive) in Caco-2 cells
Format: functional, cell-based

Chain of ATP-dependent translocase ABCB1 (P08183 whole entry): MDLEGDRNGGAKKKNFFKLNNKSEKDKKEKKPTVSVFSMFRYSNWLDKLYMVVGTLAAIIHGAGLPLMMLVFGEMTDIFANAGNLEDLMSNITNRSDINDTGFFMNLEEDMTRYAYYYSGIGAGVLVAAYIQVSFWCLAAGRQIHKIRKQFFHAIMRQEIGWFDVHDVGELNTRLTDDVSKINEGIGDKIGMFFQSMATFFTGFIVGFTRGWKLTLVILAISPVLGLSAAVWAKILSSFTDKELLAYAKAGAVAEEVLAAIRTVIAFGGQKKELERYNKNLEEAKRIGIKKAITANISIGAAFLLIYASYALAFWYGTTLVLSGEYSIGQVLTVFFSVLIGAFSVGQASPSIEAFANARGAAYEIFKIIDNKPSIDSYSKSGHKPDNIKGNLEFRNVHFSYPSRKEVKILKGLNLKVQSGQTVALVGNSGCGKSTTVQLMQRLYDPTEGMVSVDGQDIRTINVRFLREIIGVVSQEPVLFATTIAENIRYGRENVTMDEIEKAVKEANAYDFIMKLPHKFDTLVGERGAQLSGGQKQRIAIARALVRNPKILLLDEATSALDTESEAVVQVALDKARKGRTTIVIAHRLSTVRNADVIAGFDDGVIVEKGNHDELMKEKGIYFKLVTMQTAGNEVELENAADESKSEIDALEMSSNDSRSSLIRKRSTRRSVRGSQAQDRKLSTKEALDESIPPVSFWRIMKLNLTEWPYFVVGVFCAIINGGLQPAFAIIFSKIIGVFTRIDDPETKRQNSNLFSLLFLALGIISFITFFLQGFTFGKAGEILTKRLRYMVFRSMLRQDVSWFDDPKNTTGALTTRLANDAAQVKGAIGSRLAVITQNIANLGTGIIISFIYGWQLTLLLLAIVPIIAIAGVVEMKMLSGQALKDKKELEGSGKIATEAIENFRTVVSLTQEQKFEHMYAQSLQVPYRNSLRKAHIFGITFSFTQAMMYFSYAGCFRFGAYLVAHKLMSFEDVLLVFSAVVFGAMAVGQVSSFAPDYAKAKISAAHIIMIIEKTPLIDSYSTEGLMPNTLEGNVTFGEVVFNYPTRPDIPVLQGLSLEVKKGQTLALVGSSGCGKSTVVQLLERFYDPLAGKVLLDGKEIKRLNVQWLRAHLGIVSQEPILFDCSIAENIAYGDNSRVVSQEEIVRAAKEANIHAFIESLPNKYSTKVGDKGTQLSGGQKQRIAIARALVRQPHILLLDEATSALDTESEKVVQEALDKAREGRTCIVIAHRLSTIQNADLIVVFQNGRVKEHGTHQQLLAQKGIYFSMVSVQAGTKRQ

Row | Compound | Activity
1 | CCCCCCCCC/C=C/CC/C=C/C(O)C(N)CO (configuration not stated) | substrate [+]
2 | CCCCCCCCC/C(C)=C/CC/C=C/C(O)C(N)CO (configuration not stated) | substrate [+]
3 | CCCCCCCCC/C=C/CCCCC(O)C(N)CO (configuration not stated) | substrate [+]
4 | CCCCCCCCCCCCC/C=C/[C@@H](O)[C@@H](N)CO [SPHINGOSINE] | is not a substrate [-]
5 | CCCCCCCCC/C=C\CCCCC(O)C(N)CO (configuration not stated) | substrate [+]
6 | CCCCCCCCC/C=C\CC/C=C/C(O)C(N)CO (configuration not stated) | substrate [+]
7 | CCCCCCCCCCCCCCC[C@@H](O)[C@@H](N)CO [DIHYDROSPINGOSINE] | substrate [+]
